Source: paper PMC11375810, “Novel Diacyl-hydrazide Compounds as Potential Therapeutics for Visceral Leishmaniasis” (ACS Omega, 2024)
Read-outs that look alike come from different tables or passages of the source.

Legend:
[1] = THP-1 macrophage infection assay: cytotoxicity to host cells; details: human
[2] = test system: L. donovani amastigote/macrophages; set-up: method as in PMID 25740547; details: GSK kinetoplastid high-throughput screen; cited from earlier work
[3] = test system: L. donovani in infected macrophages; set-up: method as in PMID 25740547; details: cited from earlier work
HepG2 = test system: HepG2; set-up: method as in PMID 25740547; details: GSK screen; read-out: CC50 against HepG2 cells; cited from earlier work
[4] = Metabolic stability of compound 1; assay type: in vitro ADME
Text: We first analyzed compound 1 for physicochemical parameters such as the molecular weight, cLogP, polar surface area, freely rotatable bonds, hydrogen bond donors and acceptors and solubility at pH 2 and 6.5, as well as metabolic stability to evaluate its drug-likeness (Table 1). […] These “drug-like” physicochemical properties and the good synthetic accessibility of the scaffold further supported exploring the compound’s SAR to reveal valuable insights and guidance for drug developers.

[5] = test system: intracellular L. donovani in THP-1 macrophage host cells; test: THP-1 macrophage infection assay: anti L. donovani activity; details: for SI (CC50/IC50): THP-1 CC50 / L. donovani IC50; for L. donovani growth inhibitory activity (in words): L. donovani in THP-1 macrophages
[6] = test system: intracellular L. donovani in THP-1 macrophage host cells
[7] = Leishmania donovani, THP-1, read-out: IC50 (reduction of total number of parasites by 50%)

In the case of Cn1c(CC(=O)NNC(=O)c2ccc3ccccc3n2)nc2ccccc21 [Compound 1, N′-(2-(1-Methyl-1H-benzo[d]imidazole-2-yl)acetyl)quinoline-2-carbohydrazide], the CC50 at 72 h [1] is given as over 100 µM, the “pIC50 L. donovani imaging: amastigote/macrophages” value [2] is given as 6.1 and the “pIC50 L. donovani in infected macrophages” value ([3]; GSK kinetoplastid high-throughput screen) is given as about 5.9. The IC50 ([3]; GSK screen, read-out: IC50 against L. donovani in infected macrophages) was about 1.3 µM, the “therapeutic window CC50/IC50 (selectivity for the parasite)” value ([3]; HepG2 CC50 / L. donovani IC50, GSK screen) was about 79 and the CC50 (HepG2) was about 100 µM. It also gave a microsomal CLint ([4]; intrinsic clearance, read-out: metabolic stability Clint,in vitro) of 22 µL/min/mg, a half-life ([4]; read-out: metabolic stability half-life t1/2) of 1.33 h and an IC50 [5, 7] of 1.9 µM. For the same compound, the “SI (CC50/IC50)” value [5] was over 54.
In the case of O=C(Cc1nc2ccccc2[nH]1)NNC(=O)c1ccc2ccccc2n1 [Compound 5a, N′-(2-(1H-Benzo[d]imidazole-2-yl)acetyl)quinoline-2-carbohydrazide], the CC50 at 72 h [1] is reported as over 100 µM, the IC50 [5, 7] is reported as 5.9 µM and the “SI (CC50/IC50)” value [5] is reported as over 17.
O=C(Cc1nc2ccccc2s1)NNC(=O)c1ccc2ccccc2n1 [Compound 5b] showed a CC50 at 72 h [1] of over 100 µM and an IC50 [5, 7] of over 100 µM.
With O=C(Cc1nc2ccccc2o1)NNC(=O)c1ccc2ccccc2n1 [Compound 5c, N′-(2-(Benzo[d]oxazol-2-yl)acetyl)quinoline-2-carbohydrazide] the CC50 at 72 h [1] was 54 µM, the IC50 [5, 7] was 49 µM and the “SI (CC50/IC50)” value [5] was 1.1.
For Cn1c(CC(=O)NNC(=O)c2ccc3ccccc3c2)nc2ccccc21 [Compound 13a, N′-(2-(1-Methyl-1H-benzo[d]imidazole-2-yl)acetyl)-2-naphthohydrazide], the CC50 at 72 h [1] was over 100 µM, the “L. donovani growth inhibitory activity (in words)” value [5] was “completely lost their L. donovani growth inhibitory activity” and the IC50 [5, 7] was over 100 µM.
For Cn1c(CC(=O)NNC(=O)c2ccccn2)nc2ccccc21 [Compound 13b, N′-(2-(1-Methyl-1H-benzo[d]imidazole-2-yl)acetyl)picolinohydrazide], the CC50 at 72 h [1] was 62 µM, the IC50 [5, 7] was 44 µM and the “SI (CC50/IC50)” value [5] was 1.4.
In the case of Cn1c(CC(=O)NNC(=O)c2ccccc2)nc2ccccc21 [Compound 13c, N′-(2-(1-Methyl-1H-benzo[d]imidazole-2-yl)acetyl)benzohydrazide], the CC50 at 72 h [1] is reported as over 100 µM, the “L. donovani growth inhibitory activity (in words)” value [5] is reported as “completely lost their L. donovani growth inhibitory activity” and the IC50 [5, 7] is reported as over 100 µM.
Work on Cn1c(CC(=O)NNC(=O)c2cccc(-c3ccccc3)n2)nc2ccccc21 [Compound 13d, N′-(2-(1-Methyl-1H-benzo[d]imidazole-2-yl)acetyl)-6-phenylpicolinohydrazide] yielded a CC50 at 72 h [1] of over 100 µM and an IC50 [5, 7] of 20 µM.
For Cn1c(CC(=O)NNC(=O)c2ccc(-c3ccccc3)cn2)nc2ccccc21 [Compound 13e, N′-(2-(1-Methyl-1H-benzo[d]imidazole-2-yl)acetyl)-5-phenylpicolinohydrazide], the CC50 at 72 h [1] was 49 µM, the IC50 [5, 7] was 1.7 µM and the “SI (CC50/IC50)” value [5] was 29.
For Cn1c(CC(=O)NNC(=O)c2ccc(-c3ccccc3Cl)cn2)nc2ccccc21 [Compound 17a, 5-(2-Chlorophenyl)-N′-(2-(1-methyl-1H-benzo[d]imidazole-2-yl)acetyl)picolinohydrazide], the CC50 at 72 h [1] was over 100 µM, the IC50 [5, 7] was 1 µM and the “SI (CC50/IC50)” value [5] was over 103.
With Cn1c(CC(=O)NNC(=O)c2ccc(-c3cccc(Cl)c3)cn2)nc2ccccc21 [Compound 17b, 5-(3-Chlorophenyl)-N′-(2-(1-methyl-1H-benzo[d]imidazole-2-yl)acetyl)picolinohydrazide] the CC50 at 72 h [1] was 94 µM, the IC50 [5, 7] was 1 µM and the “SI (CC50/IC50)” value [5] was 94.
In the case of Cn1c(CC(=O)NNC(=O)c2ccc(-c3ccc(Cl)cc3)cn2)nc2ccccc21 [Compound 17c, 5-(4-Chlorophenyl)-N′-(2-(1-methyl-1H-benzo[d]imidazole-2-yl)acetyl)picolinohydrazide], the CC50 at 72 h [1] is reported as 73 µM, the IC50 [5, 7] is reported as 1 µM and the “SI (CC50/IC50)” value [5] is reported as 74.
With Cn1c(CC(=O)NNC(=O)c2ccc(-c3cccc(C#N)c3)cn2)nc2ccccc21 [Compound 17d, 5-(3-Cyanophenyl)-N′-(2-(1-methyl-1H-benzo[d]imidazole-2-yl)acetyl)picolinohydrazide] the CC50 at 72 h [1] was over 100 µM, the IC50 [5, 7] was 1.4 µM and the “SI (CC50/IC50)” value [5] was over 74.
For Cn1c(CC(=O)NNC(=O)c2ccc(-c3ccc(C#N)cc3)cn2)nc2ccccc21 [Compound 17e, 5-(4-Cyanophenyl)-N′-(2-(1-methyl-1H-benzo[d]imidazole-2-yl)acetyl)picolinohydrazide], the CC50 at 72 h [1] was 96 µM, the IC50 [5, 7] was 0.8 µM and the “SI (CC50/IC50)” value [5] was 120.
With COc1ccccc1-c1ccc(C(=O)NNC(=O)Cc2nc3ccccc3n2C)nc1 [Compound 17f, 5-(2-Methoxyphenyl)-N′-(2-(1-methyl-1H-benzo[d]imidazole-2-yl)acetyl)picolinohydrazide] the CC50 at 72 h [1] was 19 µM, the IC50 [5, 7] was 0.6 µM and the “SI (CC50/IC50)” value [5] was 32.
For COc1cccc(-c2ccc(C(=O)NNC(=O)Cc3nc4ccccc4n3C)nc2)c1 [Compound 17g, 5-(3-Methoxyphenyl)-N′-(2-(1-methyl-1H-benzo[d]imidazole-2-yl)acetyl)picolinohydrazide], the CC50 at 72 h [1] was over 100 µM, the IC50 [5, 7] was 0.6 µM and the “SI (CC50/IC50)” value [5] was over 172.
In the case of COc1ccc(-c2ccc(C(=O)NNC(=O)Cc3nc4ccccc4n3C)nc2)cc1 [Compound 17h, 5-(4-Methoxyphenyl)-N′-(2-(1-methyl-1H-benzo[d]imidazole-2-yl)acetyl)picolinohydrazide], the CC50 at 72 h [1] is reported as over 100 µM, the IC50 [5, 7] is reported as 0.7 µM and the “SI (CC50/IC50)” value [5] is reported as over 145.
With Cc1ccccc1-c1ccc(C(=O)NNC(=O)Cc2nc3ccccc3n2C)nc1 [Compound 17i, N′-(2-(1-Methyl-1H-benzo[d]imidazole-2-yl)acetyl)-5-(o-tolyl)picolinohydrazide] the CC50 at 72 h [1] was 67 µM, the IC50 [5, 7] was 0.4 µM and the “SI (CC50/IC50)” value [5] was 168.
In the case of Cc1cccc(-c2ccc(C(=O)NNC(=O)Cc3nc4ccccc4n3C)nc2)c1 [Compound 17j, N′-(2-(1-Methyl-1H-benzo[d]imidazole-2-yl)acetyl)-5-(m-tolyl)picolinohydrazide], the CC50 at 72 h [1] is reported as 52 µM, the IC50 [5, 7] is reported as 0.3 µM and the “SI (CC50/IC50)” value [5] is reported as 173.
With Cc1ccc(-c2ccc(C(=O)NNC(=O)Cc3nc4ccccc4n3C)nc2)cc1 [Compound 17k, N′-(2-(1-Methyl-1H-benzo[d]imidazole-2-yl)acetyl)-5-(p-tolyl)picolinohydrazide] the CC50 at 72 h [1] was over 100 µM, the IC50 [5, 7] was 0.2 µM and the “SI (CC50/IC50)” value [5] was over 500.
With “N′-(2-(Imidazole-2-yl)acetyl)quinoline-2-carbohydrazide [Compound 12]” the CC50 (THP-1 macrophages) was 33 µM, the “SI (CC50/IC50)” value [6] was 0.7 and the Complete parasite clearance ([5]; L. donovani in THP-1 macrophage host cells, 10-point curve, top 100 μM, duplicates, n = 1) was over 100 µM. It also gave an IC50 ([5]; read-out: IC50 (reduction of total number of parasites by 50%), L. donovani in THP-1 macrophage host cells, 10-point curve, 2× serial dilution, top 100 μM, duplicates, n = 1) of 45 µM.
